{"source": "patent US11623008B2", "about": "“Excipient compositions for mucoadhesive pharmaceutical compositions including a synergistic combination of amylopectin, pullulan, hyaluronic acid, and xyloglucan” (Professional Compounding Centers of America (PCCA), priority 2014, dated 2023)", "key": {"[1]": {"system": "EpiOral tissue model (ORL-200), human oral mucosa", "experiment": "Safety and toxicological profile on human oral mucosa (MTT cell viability)", "assay_type": "cell-based", "conditions": "excipient composition at 50%, Triton X-100 at 1%; for mean percent viability: mean of two experiments", "experimental": "This study was conducted to evaluate the safety and toxicological profile of disclosed excipient compositions in comparison to Triton X-100 (positive control) and distilled water (negative control), using a 3D model of the human oral mucosa. Triton X-100 is a non-ionic surfactant, which is not approved for oral use.\nMethodology: The materials used in this study include EpiOral™ tissue samples, disclosed excipient composition (Lot: 6481454) at 50% (diluted in distilled water), and Triton X-100 at 1%. The EpiOral™ tissue model (ORL-200) comprises of normal human-derived non-keratinized oral epithelial cells, cultured and differentiated to resemble the native buccal tissue of the human oral mucosa. Following tissue preparation, 40 μL of disclosed excipient composition at 50% and Triton X-100 at 1% were applied onto separate EpiOral tissue samples and left to incubate at 37° C. Incubation intervals were 1, 4.5, and 20 hours. Application of distilled water on an EpiOral tissue served as the negative control. After the allotted exposure time, each tissue was rinsed twice with phosphate buffer saline (PBS) and excess liquid was removed. Afterwards, 300 μL of 3-[4,5-dimethylthiazol-2yl]-2,5-diphenyltetrazolium bromide (MTT) solution was added to the EpiOral tissues and left to incubate for 3 hours. MTT was used as an indicator of cell viability. Succinate dehydrogenase enzymes within the mitochondria of viable cells have the ability to reduce soluble yellow tetrazonium salt of MTT to an insoluble purple formazan derivative. After 3 hours of exposure to MTT, the tissues were immersed in 2 mL of extraction solution, sealed in a plastic bag, and stored at room temperature overnight. The excess liquid was then decanted and the remaining extractant solution was agitated. A 200 μL aliquot of each extract was evaluated using a Molecular Device SpectraMax® M5 Microplate Reader. This device quantifies the absorbance potential of the samples at 570 nm, a wavelength absorbed by reduced MTT. This experiment was repeated two months following initial testing using identical methodology and the Electrolyte Saliva Gel (PCCA Formula #11150), which consists of sodium chloride, potassium chloride, calcium chloride, and a flavor extract in disclosed excipient composition (Lot: 6481454) at 50% (diluted in distilled water).\nResults and Discussion: Toxicological profiles for disclosed excipient composition and the positive control, Triton X-100 at 1%, were compared by examining absorbancy potentials of the extracts collected from both experiments. […] Mean percent cell viabilities were calculated for the two experiments and are illustrated in FIG. 3. […]"}, "[2]": {"system": "EpiVaginal tissue model, human vaginal mucosa", "experiment": "Safety and toxicological profile on human vaginal mucosa (MTT cell viability)", "assay_type": "cell-based", "conditions": "Triton X-100 at 1%", "experimental": "This study was conducted to evaluate the safety and toxicological profile of disclosed excipient compositions in comparison to Triton X-100 (positive control) by employing the EpiVaginal™ tissue model, developed by the MatTek Corporation (Ashland, Mass., USA), which is a highly differentiated 3D model of the human vaginal mucosa. The EpiVaginal™ multi-layered tissue model comprises normal, human-derived vaginal-ectocervical (VEC) epithelial and dendritic cells (DC), cultured and differentiated to resemble the growth and morphological characteristics of the human vaginal mucosa. Triton X-100 is a non-ionic surfactant that can be used as a solubilizer, stabilizer, and emulsifier.\nMethodology: Following tissue preparation, within a 6-well plate, 100 μL of disclosed excipient composition at 100% and Triton X-100 at 1% were applied onto separate EpiVaginal tissue samples and left to incubate at 37° C. for 45 minutes to 20 hours. Following incubation, tissues were rinsed twice with Phosphate Buffer Saline (PBS) and excess liquid was removed. A 300 μL of 3-[4,5-dimethylthiazol-2yl]-2,5-diphenyltetrazolium bromide (MTT) solution was then added to the tissues and left to incubate for 3 hours. MTT served as an indicator of cell viability. Succinate dehydrogenase enzymes within the mitochondria of viable cells have the ability to reduce soluble yellow tetrazonium salt of MTT to an insoluble purple formazan derivative. Tissues were then immersed in 2 mL of extraction solution and sealed in a plastic bag to soak overnight at room temperature. Excess liquid was decanted the following day, the remaining extractant solution was agitated, and 200 μL aliquot of each extract was evaluated with a Molecular Device SpectraMax® M5 Microplate Reader. This device quantifies the absorbance potential of the samples at 570 nm, a wavelength absorbed by the formazan derivative."}}, "data": [{"substance": "Triton X-100", "values": [{"measurement": "mean percent viability", "setting": "[1]; 1 hour exposure", "value": 117, "unit": "%"}, {"measurement": "mean percent viability", "setting": "[1]; 4.5 hours exposure", "value": 30, "unit": "%"}, {"measurement": "mean percent viability", "setting": "[1]; 20 hours exposure", "value": 6, "unit": "%"}, {"measurement": "ET50, the time at which percent viability would be 50%", "setting": "[1]; estimated from semi-log plot", "value": 3.2, "unit": "h"}, {"measurement": "percent cell viability", "setting": "[2]; 45 minutes exposure", "value": 97, "unit": "%"}, {"measurement": "percent cell viability", "setting": "[2]; 2 hours exposure", "value": 26, "unit": "%"}, {"measurement": "ET50, time when percent cell viability is reduced to 50%", "setting": "[2]; estimated from semi-log plot", "value": 86.4, "unit": "min"}]}]}
